The numbers were not newly measured in patent US8834942B2, “Enhanced absorption of oregano derived oils” (priority 2010, dated 2014), which cites them from elsewhere.

The conditions of this data set: single emulsifier.

Turning to polyoxyethylene sorbitan monooleate, the HLB value entry was “about 15”.
